Laboratory results from patent US9751854B2 (Millennium Pharmaceuticals, Inc., priority 2014, dated 2017).
pIC50: −log10 of the molar value.

Molecular target: human VPS34 (Homo sapiens (Human), UniProt Q8NEB9)
Test: Human VPS34 enzyme assay (Adapta TR-FRET ADP detection)
Format: biochemical
Set-up: Percent Inhibition: dose or concentration left out as unconfirmed
Details: for pIC50: IC50 range class

Chain of human VPS34 (Q8NEB9 whole entry): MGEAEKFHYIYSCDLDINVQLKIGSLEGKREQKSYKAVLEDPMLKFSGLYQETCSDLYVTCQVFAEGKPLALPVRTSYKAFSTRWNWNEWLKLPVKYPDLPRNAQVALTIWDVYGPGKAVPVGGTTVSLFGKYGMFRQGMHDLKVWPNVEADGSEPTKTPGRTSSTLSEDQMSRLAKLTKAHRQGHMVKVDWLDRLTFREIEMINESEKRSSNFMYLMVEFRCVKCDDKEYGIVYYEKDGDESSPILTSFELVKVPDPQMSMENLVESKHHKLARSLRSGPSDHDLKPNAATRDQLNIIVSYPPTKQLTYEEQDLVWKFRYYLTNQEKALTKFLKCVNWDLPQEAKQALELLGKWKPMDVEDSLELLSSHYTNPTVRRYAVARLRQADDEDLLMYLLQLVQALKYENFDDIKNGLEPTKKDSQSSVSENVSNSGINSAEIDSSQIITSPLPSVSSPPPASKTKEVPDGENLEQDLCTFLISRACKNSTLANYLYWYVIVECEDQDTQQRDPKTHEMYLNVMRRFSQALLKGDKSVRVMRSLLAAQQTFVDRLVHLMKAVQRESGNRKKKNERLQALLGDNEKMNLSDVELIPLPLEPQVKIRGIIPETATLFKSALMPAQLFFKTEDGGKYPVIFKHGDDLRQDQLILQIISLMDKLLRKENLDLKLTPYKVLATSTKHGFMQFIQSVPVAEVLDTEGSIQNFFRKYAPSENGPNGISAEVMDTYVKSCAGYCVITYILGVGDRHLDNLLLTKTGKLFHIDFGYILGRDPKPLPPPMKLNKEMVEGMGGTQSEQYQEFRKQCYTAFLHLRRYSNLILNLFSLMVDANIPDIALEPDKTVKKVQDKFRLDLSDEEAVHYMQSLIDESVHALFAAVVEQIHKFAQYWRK

Row | SMILES | pIC50 | Percent Inhibition [%]
1 | CC(=O)Nc1cc(-c2cnc3[nH]ccc3c2)ccn1 [Compound I-140, N-[4-(1H-pyrrolo[2,3-b]pyridin-5-yl)pyridin-2-yl]acetamide] | 7.30 to 8.00 | 
2 | CCOCCS(=O)(=O)c1cc(-c2ccnc(NC(C)=O)c2)cnc1N [Compound I-145, N-{6-amino-5-[(2-ethoxyethyl)sulfonyl]-3,4′-bipyridin-2′-yl}acetamide] | 7.00 to 7.30 | 
3 | CC(=O)Nc1cc(-c2cnc(C)c(NS(=O)(=O)c3nccn3C)c2)ccn1 [Compound I-92] |  | >99
4 | CC(=O)Nc1cc(-c2cnc3cn(S(=O)(=O)C4CC4)nc3c2)ccn1 [Compound I-105, N-{4-[2-(cyclopropylsulfonyl)-2H-pyrazolo[4,3-b]pyridin-6-yl]pyridin-2-yl}acetamide] | < 7.00 | 
5 | CCN(c1cc(-c2ccnc(NC(C)=O)c2)cnc1C)S(=O)(=O)C1CC1 [Compound I-26, N-{5-[(cyclopropylsulfonyl)(ethyl)amino]-6-methyl-3,4′-bipyridin-2′-yl}acetamide] | 7.00 to 7.30 | 
6 | CC(=O)Nc1cc(-c2cnc(Cl)c(NS(=O)(=O)c3ccccc3)c2)c(C)cn1 [Compound I-56, N-{6-chloro-5′-methyl-5-[(phenylsulfonyl)amino]-3,4′-bipyridin-2′-yl]acetamide] | 7.30 to 8.00 | 
7 | COC(=O)Nc1cc(-c2cnc3[nH]ncc3c2)ccn1 [Compound I-38, Methyl [4-(1H-pyrazolo[3,4-b]pyridin-5-yl)pyridin-2-yl]carbamate] | 7.30 to 8.00 | 

The remaining lines, values ahead:

Row | pIC50 | Percent Inhibition [%] | SMILES
8 | 7.30 to 8.00 |  | CC(=O)Nc1cc(-c2cncc(S(=O)(=O)Nc3ccccc3)c2)ccn1 [Compound I-459, N-[5-(phenylsulfamoyl)-3,4′-bipyridin-2′-yl]acetamide]
9 | > 8.00 |  | CC(=O)Nc1cc(-c2cnc(N)c(S(=O)(=O)Nc3ccc(Cl)cc3)c2)ccn1 [Compound I-207, N-{6-amino-5-[(4-chlorophenyl)sulfamoyl]-3,4′-bipyridin-2′-yl}acetamide]
10 | > 8.00 |  | CNc1ncc(-c2ccnc(NC(C)=O)c2)cc1N(C)S(C)(=O)=O [Compound I-147, N-{6-(methylamino)-5-[methyl(methylsulfonyl)amino]-3,4′-bipyridin-2′-yl}acetamide]
11 | 7.30 to 8.00 |  | CC(=O)Nc1cc(-c2cnc(Cl)c(NS(=O)(=O)c3cc(F)ccc3F)c2C)ccn1 [Compound I-227, N-(6-chloro-5-{[(2,5-difluorophenyl)sulfonyl]amino)-4-methyl-3,4′-bipyridin-2′-yl)acetamide]
12 | 7.30 to 8.00 |  | CC(=O)Nc1cc(-c2cnc(Cl)c(NS(=O)(=O)c3ccccc3F)c2C)ccn1 [Compound I-251, N-(6-chloro-5-{[(2-fluorophenyl)sulfonyl]amino}-4-methyl-3,4′-bipyridin-2′-yl)acetamide]
13 | 7.30 to 8.00 |  | Cc1nccc(Nc2cc(-c3cnc(Cl)c(C(=O)N4CCC4)c3)ccn2)n1 [Compound I-232, azetidin-1-yl[6-chloro-2′-[(2-methylpyrimidin-4-yl)amino]-3,4′-bipyridin-5-yl}methanone]
14 | 7.30 to 8.00 |  | CC(=O)Nc1cc(-c2cnc(Cl)c(NS(=O)(=O)N(C)C)c2C)ccn1 [Compound I-236, N-{6-chloro-5-[(dimethylsulfamoyl)amino]-4-methyl-3,4′-bipyridin-2′-yl}acetamide]
15 | 7.30 to 8.00 |  | CNS(=O)(=O)Nc1cc(-c2ccnc(NC(C)=O)c2)cnc1C [Compound I-455, N-{6-methyl-5-[(methylsulfamoyl)amino]-3,4′-bipyridin-2′-yl}acetamide]
16 | 7.30 to 8.00 |  | CC(=O)Nc1cc(-c2cnc(N)c(S(=O)(=O)C(C)C)c2)ccn1 [Compound I-175, N-[6-amino-5-(isopropylsulfonyl)-3,4′-bipyridin-2′-yl]acetamide]
17 | > 8.00 |  | CC(=O)Nc1cc(-c2cnc(C)c(NS(=O)(=O)N3CCCCC3)c2)ccn1 [Compound I-214, N-{6-methyl-5-[(piperidin-1-ylsulfonyl)amino]-3,4′-bipyridin-2′-yl}acetamide]
